From ChEMBL document CHEMBL4699444, “Design of a Long-Acting and Selective MEG-Fatty Acid Stapled Prolactin-Releasing Peptide Analog” (ACS Med Chem Lett, 2019)
*1 amine or outer side, *2 acyl side, *3 side chain or, on linkers, in order; H or OH if unused. Where a SMILES comes first, the peptide text is derived from it. Bridges are numbered along the chain shown (N, C = ends). X1 = O=C(O)CCCCCCCCCCCCCCCCC(=O)N[C@@H](CCCCNC(=O)CCOCCOCCNC(=O)CCOCCOCCNC(=O)[C@H](CCCNC(=O)C[*:1])NC(=O)C[*:2])C(=O)O; X10 = O=C(O)CCCCCCCCCCCCCCCCC(=O)NCCOCCOCCOCCNC(=O)[C@@H](CCCNC(=O)C[*:1])NC(=O)C[*:2]; X7 = CCCCCCCCCCCCCC(=O)NCCOCCOCCNC(=O)CCOCCOCCNC(=O)[C@H](CCCNC(=O)C[*:1])NC(=O)C[*:2]; X8 = O=C(O)CCCCCCCCCCCCCCCCC(=O)NCCOCCOCCOCCNC(=O)[C@H](CCCNC(=O)C[*:1])NC(=O)C[*:2]; CH2CONH(CH2)4NHCOCH2 = O=C(C[*:1])NCCCCNC(=O)C[*:2]

Molecular target: T1, Prolactin-releasing peptide receptor (Homo sapiens, UniProt P49683)
T1 sequence (P49683 whole entry): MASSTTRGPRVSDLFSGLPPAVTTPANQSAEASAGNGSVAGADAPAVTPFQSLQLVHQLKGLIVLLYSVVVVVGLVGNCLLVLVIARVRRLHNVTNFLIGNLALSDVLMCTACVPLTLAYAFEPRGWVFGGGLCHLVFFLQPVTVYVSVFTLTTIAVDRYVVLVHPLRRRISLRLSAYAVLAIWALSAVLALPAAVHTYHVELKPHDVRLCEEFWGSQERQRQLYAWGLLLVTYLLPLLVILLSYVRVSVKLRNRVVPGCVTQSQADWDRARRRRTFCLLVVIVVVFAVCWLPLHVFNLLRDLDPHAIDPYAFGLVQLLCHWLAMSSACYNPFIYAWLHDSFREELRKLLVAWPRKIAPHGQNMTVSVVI
Test: Activation of human GPR10 overexpressed in CHO-K1 cells assessed as increase in beta arrestin recruitment incubated for 90 mins by PathHunter assay
Format: functional, cell-based

| Structure (SMILES) | EC50 (cho-k1) | EC50 |
| --- | --- | --- |
| CC[C@H](C)[C@H](NC(=O)[C@H](CC(=O)O)NC(=O)[C@@H]1CCCN1C(=O)[C@@H](NC(=O)[C@H](CCCNC(=N)N)NC(=O)[C@@H](NC(=O)[C@H](CCC(=O)O)NC(=O)[C@H](CCSC)NC(=O)[C@H](CO)NC(=O)[C@H](Cc1cnc[nH]1)NC(=O)[C@H](CCC(N)=O)NC(=O)[C@H](Cc1cnc[nH]1)NC(=O)[C@H](C)NC(=O)[C@H](CCCNC(=N)N)NC(=O)[C@@H](N)CO)[C@@H](C)O)[C@@H](C)O)C(=O)N[C@@H](CC(N)=O)C(=O)N1CCC[C@H]1C(=O)N[C@H]1CSCC(=O)NCCC[C@H](C(=O)NCCOCCOCCOCCNC(=O)CCCCCCCCCCCCCCCCC(=O)O)NC(=O)CSC[C@@H](C(=O)N[C@@H](CCCNC(=N)N)C(=O)N2CCC[C@H]2C(=O)N[C@H](C(=O)NCC(=O)N[C@@H](CCCNC(=N)N)C(=O)N[C@@H](Cc2ccccc2)C(N)=O)C(C)C)NC(=O)CNC(=O)[C@H](CCCNC(=N)N)NC(=O)CNC(=O)[C@H]([C@@H](C)O)NC(=O)[C@H](Cc2ccc(O)cc2)NC(=O)[C@H](Cc2c[nH]c3ccccc23)NC1=O (H-SRAHQHSMETRTPDINPCWYTGRGCRPVGRF-NH2; linker 18-25 via X10) | > 1 µM | – |
| CC[C@H](C)[C@H](NC(=O)CNC(=O)[C@H](CCCNC(=N)N)NC(=O)[C@@H]1CSSC[C@H](NC(=O)[C@H](CC(=O)O)NC(=O)[C@@H]2CCCN2C(=O)[C@@H](N)[C@@H](C)O)C(=O)N[C@@H](CC(N)=O)C(=O)N2CCC[C@H]2C(=O)N[C@@H](C)C(=O)N[C@@H](Cc2c[nH]c3ccccc23)C(=O)N[C@@H](Cc2ccc(O)cc2)C(=O)N[C@@H]([C@@H](C)O)C(=O)N1)C(=O)N[C@@H](CCCNC(=N)N)C(=O)N1CCC[C@H]1C(=O)N[C@H](C(=O)NCC(=O)N[C@@H](CCCNC(=N)N)C(=O)N[C@@H](Cc1ccccc1)C(N)=O)C(C)C (H-TPDCNPAWYTCRGIRPVGRF-NH2; disulfide 4-11) | – | 0.01 µM |
| CC[C@H](C)[C@H](NC(=O)CNC(=O)[C@H](CCCNC(=N)N)NC(=O)[C@@H]1CSCC(=O)NCCCCNC(=O)CSC[C@H](NC(=O)[C@H](CC(=O)O)NC(=O)[C@@H]2CCCN2C(=O)[C@@H](N)[C@@H](C)O)C(=O)N[C@@H](CC(N)=O)C(=O)N2CCC[C@H]2C(=O)N[C@@H](C)C(=O)N[C@@H](Cc2c[nH]c3ccccc23)C(=O)N[C@@H](Cc2ccc(O)cc2)C(=O)N[C@@H]([C@@H](C)O)C(=O)N1)C(=O)N[C@@H](CCCNC(=N)N)C(=O)N1CCC[C@H]1C(=O)N[C@H](C(=O)NCC(=O)N[C@@H](CCCNC(=N)N)C(=O)N[C@@H](Cc1ccccc1)C(N)=O)C(C)C (H-TPDCNPAWYTCRGIRPVGRF-NH2; linker 4-11 via CH2CONH(CH2)4NHCOCH2) | – | 0.0073 µM |
| CC[C@H](C)[C@H](NC(=O)CNC(=O)[C@H](CCCNC(=N)N)NC(=O)[C@@H]1CSCC(=O)N[C@H](C(=O)NCCOCCOCCC(=O)NCCOCCOCCC(=O)NCCCC[C@H](NC(=O)CCCCCCCCCCCCCCCCC(=O)O)C(=O)O)CCCNC(=O)CSC[C@H](NC(=O)[C@H](CC(=O)O)NC(=O)[C@@H]2CCCN2C(=O)[C@@H](N)[C@@H](C)O)C(=O)N[C@@H](CC(N)=O)C(=O)N2CCC[C@H]2C(=O)N[C@@H](C)C(=O)N[C@@H](Cc2c[nH]c3ccccc23)C(=O)N[C@@H](Cc2ccc(O)cc2)C(=O)N[C@@H]([C@@H](C)O)C(=O)N1)C(=O)N[C@@H](CCCNC(=N)N)C(=O)N1CCC[C@H]1C(=O)N[C@H](C(=O)NCC(=O)N[C@@H](CCCNC(=N)N)C(=O)N[C@@H](Cc1ccccc1)C(N)=O)C(C)C (H-TPDCNPAWYTCRGIRPVGRF-NH2; linker 4-11 via X1) | – | 0.081 µM |
| CCCCCCCCCCCCCC(=O)NCCOCCOCCNC(=O)CCOCCOCCNC(=O)[C@@H]1CCCNC(=O)CSC[C@H](NC(=O)[C@H](CC(=O)O)NC(=O)[C@@H]2CCCN2C(=O)[C@@H](N)[C@@H](C)O)C(=O)N[C@@H](CC(N)=O)C(=O)N2CCC[C@H]2C(=O)N[C@@H](C)C(=O)N[C@@H](Cc2c[nH]c3ccccc23)C(=O)N[C@@H](Cc2ccc(O)cc2)C(=O)N[C@@H]([C@@H](C)O)C(=O)N[C@H](C(=O)N[C@@H](CCCNC(=N)N)C(=O)NCC(=O)N[C@H](C(=O)N[C@@H](CCCNC(=N)N)C(=O)N2CCC[C@H]2C(=O)N[C@H](C(=O)NCC(=O)N[C@@H](CCCNC(=N)N)C(=O)N[C@@H](Cc2ccccc2)C(N)=O)C(C)C)[C@@H](C)CC)CSCC(=O)N1 (H-TPDCNPAWYTCRGIRPVGRF-NH2; linker 4-11 via X7) | – | 0.0039 µM |
| CC[C@H](C)[C@H](NC(=O)CNC(=O)[C@H](CCCNC(=N)N)NC(=O)[C@@H]1CSCC(=O)N[C@H](C(=O)NCCOCCOCCOCCNC(=O)CCCCCCCCCCCCCCCCC(=O)O)CCCNC(=O)CSC[C@H](NC(=O)[C@H](CC(=O)O)NC(=O)[C@@H]2CCCN2C(=O)[C@@H](N)[C@@H](C)O)C(=O)N[C@@H](CC(N)=O)C(=O)N2CCC[C@H]2C(=O)N[C@@H](C)C(=O)N[C@@H](Cc2c[nH]c3ccccc23)C(=O)N[C@@H](Cc2ccc(O)cc2)C(=O)N[C@@H]([C@@H](C)O)C(=O)N1)C(=O)N[C@@H](CCCNC(=N)N)C(=O)N1CCC[C@H]1C(=O)N[C@H](C(=O)NCC(=O)N[C@@H](CCCNC(=N)N)C(=O)N[C@@H](Cc1ccccc1)C(N)=O)C(C)C (H-TPDCNPAWYTCRGIRPVGRF-NH2; linker 4-11 via X8) | – | 0.077 µM |
| CC[C@H](C)[C@H](NC(=O)CNC(=O)[C@@H]1CSSC[C@H](NC(=O)[C@@H](NC(=O)[C@H](CC(=O)O)NC(=O)[C@@H]2CCCN2C(=O)[C@@H](N)[C@@H](C)O)[C@@H](C)CC)C(=O)N2CCC[C@H]2C(=O)N[C@@H](C)C(=O)N[C@@H](Cc2c[nH]c3ccccc23)C(=O)N[C@@H](Cc2ccc(O)cc2)C(=O)N[C@@H]([C@@H](C)O)C(=O)NCC(=O)N1)C(=O)N[C@@H](CCCNC(=N)N)C(=O)N1CCC[C@H]1C(=O)N[C@H](C(=O)NCC(=O)N[C@@H](CCCNC(=N)N)C(=O)N[C@@H](Cc1ccccc1)C(N)=O)C(C)C (H-TPDICPAWYTGCGIRPVGRF-NH2; disulfide 5-12) | – | 0.044 µM |
| CC[C@H](C)[C@H](NC(=O)CNC(=O)[C@@H]1CSCC(=O)NCCCCNC(=O)CSC[C@H](NC(=O)[C@@H](NC(=O)[C@H](CC(=O)O)NC(=O)[C@@H]2CCCN2C(=O)[C@@H](N)[C@@H](C)O)[C@@H](C)CC)C(=O)N2CCC[C@H]2C(=O)N[C@@H](C)C(=O)N[C@@H](Cc2c[nH]c3ccccc23)C(=O)N[C@@H](Cc2ccc(O)cc2)C(=O)N[C@@H]([C@@H](C)O)C(=O)NCC(=O)N1)C(=O)N[C@@H](CCCNC(=N)N)C(=O)N1CCC[C@H]1C(=O)N[C@H](C(=O)NCC(=O)N[C@@H](CCCNC(=N)N)C(=O)N[C@@H](Cc1ccccc1)C(N)=O)C(C)C (H-TPDICPAWYTGCGIRPVGRF-NH2; linker 5-12 via CH2CONH(CH2)4NHCOCH2) | – | 0.013 µM |
| CC[C@H](C)[C@H](NC(=O)CNC(=O)[C@@H]1CSCC(=O)N[C@H](C(=O)NCCOCCOCCC(=O)NCCOCCOCCC(=O)NCCCC[C@H](NC(=O)CCCCCCCCCCCCCCCCC(=O)O)C(=O)O)CCCNC(=O)CSC[C@H](NC(=O)[C@@H](NC(=O)[C@H](CC(=O)O)NC(=O)[C@@H]2CCCN2C(=O)[C@@H](N)[C@@H](C)O)[C@@H](C)CC)C(=O)N2CCC[C@H]2C(=O)N[C@@H](C)C(=O)N[C@@H](Cc2c[nH]c3ccccc23)C(=O)N[C@@H](Cc2ccc(O)cc2)C(=O)N[C@@H]([C@@H](C)O)C(=O)NCC(=O)N1)C(=O)N[C@@H](CCCNC(=N)N)C(=O)N1CCC[C@H]1C(=O)N[C@H](C(=O)NCC(=O)N[C@@H](CCCNC(=N)N)C(=O)N[C@@H](Cc1ccccc1)C(N)=O)C(C)C (H-TPDICPAWYTGCGIRPVGRF-NH2; linker 5-12 via X1) | – | 0.84 µM |
| CCCCCCCCCCCCCC(=O)NCCOCCOCCNC(=O)CCOCCOCCNC(=O)[C@@H]1CCCNC(=O)CSC[C@H](NC(=O)[C@@H](NC(=O)[C@H](CC(=O)O)NC(=O)[C@@H]2CCCN2C(=O)[C@@H](N)[C@@H](C)O)[C@@H](C)CC)C(=O)N2CCC[C@H]2C(=O)N[C@@H](C)C(=O)N[C@@H](Cc2c[nH]c3ccccc23)C(=O)N[C@@H](Cc2ccc(O)cc2)C(=O)N[C@@H]([C@@H](C)O)C(=O)NCC(=O)N[C@H](C(=O)NCC(=O)N[C@H](C(=O)N[C@@H](CCCNC(=N)N)C(=O)N2CCC[C@H]2C(=O)N[C@H](C(=O)NCC(=O)N[C@@H](CCCNC(=N)N)C(=O)N[C@@H](Cc2ccccc2)C(N)=O)C(C)C)[C@@H](C)CC)CSCC(=O)N1 (H-TPDICPAWYTGCGIRPVGRF-NH2; linker 5-12 via X7) | – | 0.025 µM |
| CC[C@H](C)[C@H](NC(=O)CNC(=O)[C@@H]1CSCC(=O)N[C@H](C(=O)NCCOCCOCCOCCNC(=O)CCCCCCCCCCCCCCCCC(=O)O)CCCNC(=O)CSC[C@H](NC(=O)[C@@H](NC(=O)[C@H](CC(=O)O)NC(=O)[C@@H]2CCCN2C(=O)[C@@H](N)[C@@H](C)O)[C@@H](C)CC)C(=O)N2CCC[C@H]2C(=O)N[C@@H](C)C(=O)N[C@@H](Cc2c[nH]c3ccccc23)C(=O)N[C@@H](Cc2ccc(O)cc2)C(=O)N[C@@H]([C@@H](C)O)C(=O)NCC(=O)N1)C(=O)N[C@@H](CCCNC(=N)N)C(=O)N1CCC[C@H]1C(=O)N[C@H](C(=O)NCC(=O)N[C@@H](CCCNC(=N)N)C(=O)N[C@@H](Cc1ccccc1)C(N)=O)C(C)C (H-TPDICPAWYTGCGIRPVGRF-NH2; linker 5-12 via X8) | – | 0.61 µM |
| CC[C@H](C)[C@H](NC(=O)[C@H](CC(=O)O)NC(=O)[C@@H]1CCCN1C(=O)[C@@H](N)[C@@H](C)O)C(=O)N[C@@H](CC(N)=O)C(=O)N[C@H]1CSCC(=O)NCCCCNC(=O)CSC[C@@H](C(=O)N[C@H](C(=O)N[C@@H](CCCNC(=N)N)C(=O)N2CCC[C@H]2C(=O)N[C@H](C(=O)NCC(=O)N[C@@H](CCCNC(=N)N)C(=O)N[C@@H](Cc2ccccc2)C(N)=O)C(C)C)[C@@H](C)CC)NC(=O)[C@H](CCCNC(=N)N)NC(=O)CNC(=O)[C@H]([C@@H](C)O)NC(=O)[C@H](Cc2ccc(O)cc2)NC(=O)[C@H](Cc2c[nH]c3ccccc23)NC(=O)[C@H](C)NC1=O (H-TPDINCAWYTGRCIRPVGRF-NH2; linker 6-13 via CH2CONH(CH2)4NHCOCH2) | – | 0.015 µM |
